Results published in ChEMBL document CHEMBL1121380, “Perspective on the design and biochemical pharmacology of inhibitors of thymidylate synthetase” (J Med Chem, 1980).
Blank lines part the entries; values can stand above or below the molecule they belong to.

Tests used:
[1] = In vitro inhibition against mammalian Uridine phosphorylase
[2] = Michaelis-Menten constant for Uridine phosphorylase
[3] = substrate: O=c1[nH]c(=S)ccn1[C@H]1C[C@H](O)[C@@H](COP(=O)(O)O)O1; experiment: Michaelis-Menten constant for dTMP synthetase; settings: Lacticaseibacillus casei

Ki [1]: ~1000 nM
Molecule: Oc1ncc(Cc2ccccc2)c(O)n1

Km [2]: 1000 µM
Molecule: C[C@H]1OC(n2ccc(=O)[nH]c2=O)[C@H](O)[C@@H]1O (stereo partly drawn)

B1: Thymidylate synthase (Lactobacillus casei), P00469 (protein)
chain: MLEQPYLDLAKKVLDEGHFKPDRTHTGTYSIFGHQMRFDLSKGFPLLTTKKVPFGLIKSELLWFLHGDTNIRFLLQHRNHIWDEWAFEKWVKSDEYHGPDMTDFGHRSQKDPEFAAVYHEEMAKFDDRVLHDDAFAAKYGDLGLVYGSQWRAWHTSKGDTIDQLGDVIEQIKTHPYSRRLIVSAWNPEDVPTMALPPCHTLYQFYVNDGKLSLQLYQRSADIFLGVPFNIASYALLTHLVAHECGLEVGEFIHTFGDAHLYVNHLDQIKEQLSRTPRPAPTLQLNPDKHDIFDFDMKDIKLLNYDPYPAIKAPVAV
Km [3]: 70 µM
